Experimental data as given in patent US20050079159A1, “In vivo bioreactors” (Massachusetts Instiute of Technology, priority 2001, published 2005).

Test system: periosteal explants
Assay: In vitro periosteal chondrogenesis, organ culture model in alginate gel suspension
Type: cell-based
Conditions: 10 ng/ml; for Chondrogenesis (H & E; Safranin-O): first two weeks
Method: A further in vitro study of periosteal chondrogenesis has been performed to evaluate an organ culture model using an alginate gel suspension. Briefly, periosteal explants of approximate dimensions 3×3 mm were cultured in an alginate gel suspension and supplemented with either TGF-β1, b-FGF, a combination of the two, or in the absence of growth factors. b-FGF and TGF-β1 were administered at a concentration of 10 ng/ml every two days at each media change for the first week and first two weeks of in vitro culture respectively.
Additionally the cultures were supplemented daily with 50 μg/ml ascorbic acid for the first four weeks of in vitro culture. Results from histological analysis (H & E; and Safranin-O staining) of the explants performed at 1, 3, 6 and 8 week timepoints, were similar to those from the organ culture model utilizing the agarose gel (data not shown). Namely, after a period of 1 week in vitro culture, none of the explants stained positive for glycosaminoglycans using Safranin-O staining. Significant neo-chondrogenesis from the periosteum was not observed for explants cultured in the absence of added growth factors or supplemented with b-FGF alone over the period of 8 weeks. […] Safranin-O stains of typical periosteal explants after 1, 3, 6 and 8 weeks in vitro culture when b-FGF and TGF-β1 were administered for the first week and first two weeks of in vitro culture were observed.

b-FGF: basic fibroblast growth factor
Significant neo-chondrogenesis from the periosteum (H & E; Safranin-O) (over the period of 8 weeks in vitro culture): not observed

TGF-β1: transforming growth factor
Chondrogenesis (H & E; Safranin-O) (after 3 weeks in vitro culture): apparent | Chondrogenesis (H & E; Safranin-O) (after 8 weeks in vitro culture): most pronounced
